Results as given in ChEMBL document CHEMBL1201862, “PubChem BioAssay data set” (2004).
Calls of active or inactive are those of the source. For most assays here, no stated cut-off is given here; in the data, actives have a measured IC50 and inactives only a lower limit.

Legend:
Caspase-6 = molecular target: T1, Caspase-6 (Homo sapiens, UniProt P55212); experiment: inhibition of CASP6 peptide cleavage – biochemical, VEID-R110 fluorescence, cherry-pick, dose response (AID 720632)
T1 sequence (P55212 whole entry): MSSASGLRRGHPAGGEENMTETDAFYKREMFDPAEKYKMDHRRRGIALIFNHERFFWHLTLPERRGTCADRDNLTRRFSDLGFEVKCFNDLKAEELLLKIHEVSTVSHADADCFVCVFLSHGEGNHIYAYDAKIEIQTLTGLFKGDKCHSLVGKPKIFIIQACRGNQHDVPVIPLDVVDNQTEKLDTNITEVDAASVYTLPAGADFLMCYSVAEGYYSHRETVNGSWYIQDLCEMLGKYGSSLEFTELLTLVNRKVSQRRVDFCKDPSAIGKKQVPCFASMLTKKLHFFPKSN

[1] = molecular target: T2, Sentrin-specific protease 6 (Homo sapiens, UniProt Q9GZR1); type: functional;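 further: Luminescence-based dose-response confirmatory assay of SENP6 inhibition, following up an ultra-high-throughput screen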
T2 sequence (Q9GZR1 whole entry): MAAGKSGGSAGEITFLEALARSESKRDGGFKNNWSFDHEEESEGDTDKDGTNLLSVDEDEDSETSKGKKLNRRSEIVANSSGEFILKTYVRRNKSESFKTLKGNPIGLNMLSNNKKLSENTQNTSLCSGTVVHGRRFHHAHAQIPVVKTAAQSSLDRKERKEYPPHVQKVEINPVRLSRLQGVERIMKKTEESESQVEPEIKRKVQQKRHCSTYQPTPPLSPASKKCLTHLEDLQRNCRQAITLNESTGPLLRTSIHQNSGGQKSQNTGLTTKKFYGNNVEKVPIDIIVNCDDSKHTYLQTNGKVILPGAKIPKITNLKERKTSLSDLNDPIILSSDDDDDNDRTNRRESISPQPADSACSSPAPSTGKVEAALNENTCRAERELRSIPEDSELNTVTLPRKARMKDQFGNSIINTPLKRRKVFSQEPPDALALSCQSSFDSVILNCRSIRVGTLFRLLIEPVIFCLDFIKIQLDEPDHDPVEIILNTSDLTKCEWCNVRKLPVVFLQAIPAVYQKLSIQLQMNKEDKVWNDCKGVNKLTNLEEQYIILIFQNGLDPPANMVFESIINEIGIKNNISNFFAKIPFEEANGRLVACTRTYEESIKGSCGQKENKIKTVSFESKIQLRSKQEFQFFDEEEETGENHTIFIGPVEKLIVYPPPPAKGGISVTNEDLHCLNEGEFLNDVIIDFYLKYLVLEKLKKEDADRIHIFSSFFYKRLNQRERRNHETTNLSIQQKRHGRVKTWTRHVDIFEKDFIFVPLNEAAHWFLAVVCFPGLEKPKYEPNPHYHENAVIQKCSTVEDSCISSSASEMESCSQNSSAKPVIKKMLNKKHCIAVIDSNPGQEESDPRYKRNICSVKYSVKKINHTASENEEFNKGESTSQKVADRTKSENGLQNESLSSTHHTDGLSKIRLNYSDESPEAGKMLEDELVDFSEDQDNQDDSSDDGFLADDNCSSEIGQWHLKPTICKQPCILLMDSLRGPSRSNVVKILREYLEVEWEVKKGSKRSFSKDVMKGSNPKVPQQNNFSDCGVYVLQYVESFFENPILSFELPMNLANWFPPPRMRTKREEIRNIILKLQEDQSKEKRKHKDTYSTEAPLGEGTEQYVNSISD

Bcl-2-related protein A1 = molecular target: T3, Bcl-2-related protein A1 (Mus musculus, UniProt Q07440); experiment: displacement of Bid BH3 peptide from Bfl-1 – biochemical, fluorescence polarization, FITC-Bid, mouse, primary screen (AID 432)
T3 sequence (Q07440 whole entry): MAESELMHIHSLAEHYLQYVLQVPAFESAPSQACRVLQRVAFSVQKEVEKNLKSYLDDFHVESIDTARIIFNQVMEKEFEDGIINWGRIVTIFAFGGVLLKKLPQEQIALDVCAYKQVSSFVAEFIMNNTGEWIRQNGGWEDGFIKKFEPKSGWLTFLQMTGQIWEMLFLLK

| SMILES | AC50 (Caspase-6) | IC50 [1] | IC50 (Bcl-2-related protein A1) |
| --- | --- | --- | --- |
| COc1cc(OC)c(-c2c3cc(O)c(=O)cc-3oc3cc(O)c(O)cc23)cc1OC | 36.7 nM (active) |  |  |
| Oc1nc(Nc2ccccc2)cc2ccccc12 |  | 345 nM (active) | > 100000 nM (not active) |
